One assay has as its target T1, MobA (Escherichia coli, UniProt P32173).
T1 construct: from plasmid pCT800A, Ni-NTA and size exclusion purified; monomer
T1 sequence (P32173 1-194): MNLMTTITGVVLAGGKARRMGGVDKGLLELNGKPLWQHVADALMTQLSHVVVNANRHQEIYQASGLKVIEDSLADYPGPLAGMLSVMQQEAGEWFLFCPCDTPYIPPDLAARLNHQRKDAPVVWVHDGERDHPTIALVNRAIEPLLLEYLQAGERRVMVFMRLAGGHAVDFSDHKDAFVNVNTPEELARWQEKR
The experiment in a line: conversion to bis-MGD, HPLC of FormA-GMP. Format: biochemical. To be noted: 3 µM MobA, 1 mM GTP, 1 mM MgCl2, 5 min, room temperature, bis-Mo-MPT from 30 µM YdhV.

The target of the next assay is T2, apo-TorA (Escherichia coli, UniProt P33225).
T2 construct: from plasmid pJF119EH, Ni-NTA and size exclusion purified; cofactor-free apo-enzyme reconstituted in vitro
T2 sequence (P33225 40-848): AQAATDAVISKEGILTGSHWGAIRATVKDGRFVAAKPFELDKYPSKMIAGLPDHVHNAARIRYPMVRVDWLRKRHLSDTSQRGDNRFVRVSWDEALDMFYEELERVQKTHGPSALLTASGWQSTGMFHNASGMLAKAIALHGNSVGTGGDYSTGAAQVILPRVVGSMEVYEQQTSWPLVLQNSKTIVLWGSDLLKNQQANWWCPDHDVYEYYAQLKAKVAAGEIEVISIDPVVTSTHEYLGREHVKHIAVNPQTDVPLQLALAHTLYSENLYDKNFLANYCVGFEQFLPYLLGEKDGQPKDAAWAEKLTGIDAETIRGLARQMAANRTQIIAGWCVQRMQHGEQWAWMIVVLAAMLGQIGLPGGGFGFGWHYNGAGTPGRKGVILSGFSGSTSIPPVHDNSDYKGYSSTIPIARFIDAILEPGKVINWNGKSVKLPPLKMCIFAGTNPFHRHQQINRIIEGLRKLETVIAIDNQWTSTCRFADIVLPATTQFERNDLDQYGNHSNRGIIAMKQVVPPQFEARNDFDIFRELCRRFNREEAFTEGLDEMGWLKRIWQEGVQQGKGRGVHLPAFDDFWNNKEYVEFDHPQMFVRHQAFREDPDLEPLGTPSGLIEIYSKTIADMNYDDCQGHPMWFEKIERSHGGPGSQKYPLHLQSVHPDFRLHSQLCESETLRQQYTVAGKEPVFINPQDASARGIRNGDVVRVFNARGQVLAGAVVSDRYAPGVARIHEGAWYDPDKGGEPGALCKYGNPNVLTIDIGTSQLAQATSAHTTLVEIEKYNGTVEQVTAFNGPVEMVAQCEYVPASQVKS
Description: in vitro reconstitution, gel filtration, HPLC of FormA-GMP. Format: binding. To be noted: 1.3 µM apo-TorA, bis-MGD extracted from wtTorA, saturation at 25 µM donor, 7 h, 37 °C, pH 7.2, anaerobic.

In another assay the target is T3, apo-YdhV (Escherichia coli, UniProt P76192).
T3 construct: from plasmid SR153, expressed in E. coli RK5200, Ni-NTA and size exclusion purified; cofactor-free apo-protein
T3 sequence (P76192 1-700): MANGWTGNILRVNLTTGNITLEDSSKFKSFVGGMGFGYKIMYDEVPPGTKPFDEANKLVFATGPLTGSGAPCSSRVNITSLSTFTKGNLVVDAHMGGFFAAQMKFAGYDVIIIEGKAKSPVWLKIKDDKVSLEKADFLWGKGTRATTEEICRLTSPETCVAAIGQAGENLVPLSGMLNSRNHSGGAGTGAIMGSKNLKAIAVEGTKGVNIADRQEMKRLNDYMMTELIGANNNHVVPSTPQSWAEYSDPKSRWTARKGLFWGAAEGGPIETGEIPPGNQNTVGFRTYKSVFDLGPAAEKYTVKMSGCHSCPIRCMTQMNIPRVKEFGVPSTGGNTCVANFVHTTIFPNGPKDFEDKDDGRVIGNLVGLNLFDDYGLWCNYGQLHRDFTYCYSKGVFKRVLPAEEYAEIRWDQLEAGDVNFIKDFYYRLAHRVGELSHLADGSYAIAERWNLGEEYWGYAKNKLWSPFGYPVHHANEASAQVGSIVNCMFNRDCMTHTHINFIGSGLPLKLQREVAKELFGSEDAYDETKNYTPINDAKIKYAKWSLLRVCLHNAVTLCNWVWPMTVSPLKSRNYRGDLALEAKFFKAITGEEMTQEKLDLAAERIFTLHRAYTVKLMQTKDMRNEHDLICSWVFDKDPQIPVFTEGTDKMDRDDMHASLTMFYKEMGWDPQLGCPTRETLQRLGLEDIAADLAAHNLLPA
Description: in vitro reconstitution, gel filtration, HPLC of dephospho-FormA. Format: binding. To be noted: 1.3 µM apo-YdhV, 7 h, 37 °C, pH 7.2, anaerobic, cofactor from alkaline phosphatase treatment.

On to `Nc1nc2c(ncn2[C@@H]2O[C@H](COP(=O)(O)OP(=O)(O)OP(=O)(O)O)[C@@H](O)[C@H]2O)c(=O)[nH]1` [GTP], for which the “conversion to bis-MGD, HPLC of FormA-GMP” value at MobA was “we converted bis-Mo-MPT into bis-MGD by the attachment of nucleotides using MobA and Mg-GTP”.
For `Nc1nc2c(c(=O)[nH]1)N[C@H]1C([S-])=C([S-])[C@@H](COP(=O)([O-])OP(=O)([O-])OC[C@H]3O[C@@H](n4cnc5c(=O)[nH]c(N)nc54)[C@H](O)[C@@H]3O)O[C@H]1N2.Nc1nc2c(c(=O)[nH]1)N[C@H]1C([S-])=C([S-])[C@@H](COP(=O)([O-])OP(=O)([O-])OC[C@H]3O[C@@H](n4cnc5c(=O)[nH]c(N)nc54)[C@H](O)[C@@H]3O)O[C@H]1N2.[O]=[Mo+4]` [bis-MGD], the “% bis-MGD saturation (maximum)” value on apo-TorA was 61.9%.
On to dephospho-bis-Mo-MPT, for which the “% bound at 100 μM donor” value at apo-YdhV amounted to 25.1%.

The record behind these values is publication PMC9103625, “The Role of the Nucleotides in the Insertion of the bis-Molybdopterin Guanine Dinucleotide Cofactor into apo-Molybdoenzymes” (Molecules, 2022).
